How the values were obtained:
[1] = Typical duration of action (period of therapeutic effect) of an immediate release dose, from labeling; type: in vivo
Text: As used herein, “ATDAIRD” shall mean the average therapeutic duration of action of an effective immediate release dose” of a particular active ingredient. […] The therapeutic duration of action of a particular active ingredient can readily be determined from the dosing instructions in the labeling for immediate release products containing that particular active ingredient.

[2] = decongestant; typically administered every 2 to 4 hours; cited from earlier work

CC(C)Cc1ccc(C(C)C(=O)O)cc1 (centres unmarked) [ibuprofen, 2-(4-isobutylphenyl)-propionic acid]
ATDAIRD (average therapeutic duration of action of an effective immediate release dose) [1]: 5 h

CC(C(=O)O)c1cccc(C(=O)c2ccccc2)c1 (centres unmarked) [ketoprofen]
ATDAIRD (average therapeutic duration of action of an effective immediate release dose) [1]: 5 h

COc1ccc2cc([C@H](C)C(=O)O)ccc2c1 [naproxen]
ATDAIRD (average therapeutic duration of action of an effective immediate release dose) [1]: 10 h

CNC[C@H](O)c1cccc(O)c1 [phenylephrine, benzynemethanol, 3-hydroxy-α-[(methylamino)methyl]]
duration of therapeutic effect [2]: about 2.5 hours

CN[C@@H](C)[C@@H](O)c1ccccc1 [psuedoephedrine]
ATDAIRD (average therapeutic duration of action of an effective immediate release dose) [1]: about 3 hours

From patent US8771716B2, “Modified release analgesic suspensions” (McNeil-PPC, Inc., priority 2006, dated 2014)
